Source: patent publication US9980979B2, “Compounds and methods for enhancing erythropoiesis” (NATIONAL YANG-MING UNIVERSITY, priority 2008, dated 2018)

Tests used:
[1] = tested on: erythroid progenitor cells (bone marrow cells); experiment: burst-forming-units-erythroid (BFU-E) assay on bone marrow cells in culture; type: cell-based, C57BL/6JNarl mice; conditions: 0.5~12.5 μg/ml, 9 days, with 2 U/ml Epo and 10 ng/ml IL-3; versus 0 concentration; FIG. 2
Description: To investigate the effect of “Compound A” on erythroid progenitor cells, burst-forming-units-erythroid (BFU-E) assay was conducted according to the procedures described in Corazza et al. (2004) and Jin et al. (2003) with modifications. Briefly, 6-week-old C57BL/6JNarl mice were purchased from the National Laboratory Animal Center (NLAC, Taiwan). Bone marrow cells were isolated from the mice, and the cell suspension was adjusted to about 8.3×10^4 cells/ml in α-MEM containing 15% (v/v) FBS (Gibco), 1% (v/v) BSA (Sigma-Aldrich), 0.8% (w/v) methylcellulose (Sigma-Aldrich), 10 μM 2-mercaptoethanol (Sigma-Aldrich), 2 U/ml Epo (Recormon Epoetin, Roche), and 10 ng/ml IL-3 (Sigma-Aldrich). Cells were plated at approximately 7.5×10^4 cells/well in 24-well plates (Falcon). They were incubated with different concentrations of Compound A (0, 0.1, 0.5, 2.5 and 12.5 μg/ml), respectively, for 9 days in a humidified 37° C. incubator containing 5% CO2-95% air. The colonies were stained with 3-(4,5-dimethylthiazol-2-yl)-2,5-diphenyl-tetrazolium bromide (50 m/50 μl/well) (MTT; Sigma-Aldrich). Plates were photographed while colonies of more than 50 cells were counted. Results were expressed as mean±S.E. (n=3). Statistical significance was evaluated by Student's t test (*P<0.05 and **P<0.01 versus control group (i.e., 0 concentration)).

[2] = tested on: cisplatin-induced acute renal failure animal model; experiment: cisplatin-induced acute renal failure animal model: red blood cell count and blood urea nitrogen; type: in vivo, C57BL/6JNarl mice
Description: The effects of Compound A treatment on cisplatin-induced acute renal failure animal model were investigated. C57BL/6JNarl mice (8-week-old) were purchased from the National Laboratory Animal Center (NLAC, Taiwan). Cisplatin (Sigma-Aldrich) was dissolved in normal saline (0.9% (w/v) sodium chloride, Sigma-Aldrich) at a concentration of 1 mg/ml, and injected into mice intraperitoneally (i.p.) according to the following schedule: day 1, 7 mg/kg; day 5, 6 mg/kg; and day 9, 6 mg/kg. For cisplatin-untreated normal mice group, normal saline injections of corresponding volumes were given i.p. in parallel. At day 13, serum samples were collected and blood urea nitrogen (BUN) contents were assayed. Cisplatin-injected mice with BUN levels more than 100 mg/dl and the cisplatin-untreated normal mice were further divided into 5 groups, 6 mice per group, for feeding with Compound A for 2 weeks: (1) Normal group: Mice were injected with normal saline and followed by feeding with a standard diet; (2) Control group: Mice were injected with cisplatin and followed by feeding with a standard diet; (3) Pomu 10 mg/kg/day group: Mice were injected with cisplatin and followed by feeding with Compound A at the dose of 10 mg/kg/day; (4) Pomu 30 mg/kg/day group: Mice were injected with cisplatin and followed by Compound A at the dose of 30 mg/kg/day; (5) Pomu 90 mg/kg/day group: Mice were injected with cisplatin and followed by Compound A treatment at the dose of 90 mg/kg/day. Blood samples were collected from the retro-orbital sinus of mice at day 0, 5, 10, 13, 18, 23 and 28. Red blood cell (RBC) concentrations were determined by complete blood cell count using Sysmex® Kx-21 hematology analyzer. Blood urea nitrogen (BUN) levels were determined by urease GLDH method (Urea FS, DiaSys). Results were expressed as mean±S.E. (n=5˜6). Statistical significance was evaluated by Student's t test (##P<0.01 versus normal group and **P<0.01 versus control group). […] The horizontal arrow in FIGS. 7 and 8 represents Compound A treatment (mg/Kg/day). […] The results were in agreement with the ability of the Compound A in enhancing erythropoiesis.

SMILES: OC[C@H]1O[C@@H](Oc2c(O)cc(O)cc2/C=C/c2ccc(O)cc2)[C@H](O)[C@@H](O)[C@@H]1O [Compound A, 2,3,5,4′-tetrahydroxystilbene 2-O-β-D-glucopyranoside]
- number of BFU-E colonies of bone marrow cells [1]: significantly increased the number of BFU-E colonies
- number of red blood cells (RBCs) ([2]; 30~90 mg/kg/day in feed for 2 weeks, time course, FIG. 5): increased the number of red blood cells
- serum BUN levels ([2]; 30~90 mg/kg/day in feed for 2 weeks, time course, FIG. 6): decreased serum BUN levels
- number of RBCs at day 23 ([2]; 30~90 mg/kg/day, day 23, versus control group, FIG. 7): significantly increased the number of RBCs
- serum BUN levels at day 23 ([2]; 30~90 mg/kg/day, day 23, versus control group, FIG. 8): decreasing serum BUN levels
